Laboratory results as given in the Kinase Knowledgebase extract (Sharma et al. 2016).

Experiments:
MAPK14 = MAPK14 (UniProt Q16539); assay: Inhibition of MAPK14 Kinase Activity
MAPK14 (human) = MAPK14 (human) (UniProt Q16539); assay: Inhibition of LPS-Stimulated TNF-alpha Production in Human Whole Blood
Chain of MAPK14 (human) (Q16539 whole entry, looked up): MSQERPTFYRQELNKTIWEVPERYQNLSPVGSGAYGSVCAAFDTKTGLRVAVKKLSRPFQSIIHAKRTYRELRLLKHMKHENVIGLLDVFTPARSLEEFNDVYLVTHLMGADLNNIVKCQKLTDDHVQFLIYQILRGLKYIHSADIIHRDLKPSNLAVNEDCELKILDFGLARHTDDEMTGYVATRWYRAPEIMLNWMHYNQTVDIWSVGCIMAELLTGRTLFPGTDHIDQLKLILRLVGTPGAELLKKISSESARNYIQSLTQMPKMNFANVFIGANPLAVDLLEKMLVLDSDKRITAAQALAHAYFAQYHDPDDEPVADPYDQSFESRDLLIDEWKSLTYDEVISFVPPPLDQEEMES

Chain of MAPK14 (Q16539 whole entry, looked up): as above

**Q.** For CCCN1CCC(Oc2nccc(Nc3cc(NC(=O)c4cccc(N5CCOCC5)c4)ccc3C)n2)CC1, which IC50 (MAPK14) is on record?
**A.** The IC50 was 0.049 µM.

**Q.** With Cc1ccc(NC(=O)c2ccnc(N3CCOCC3)c2)cc1Nc1ccnc(Cl)n1 as the compound, how does the IC50 (MAPK14) read?
**A.** The IC50 was 0.019 µM.

**Q.** Cc1ccc(NC(=O)c2ccnc(N3CCOCC3)c2)cc1Nc1ccnc(OCC2CCCN(C)C2)n1 (stereo not given) was tested. Which IC50 (MAPK14) did it give?
**A.** Its IC50 is 0.033 µM.

**Q.** With COc1cc2ncnc(Nc3cc(NC(=O)c4cccc(N5CCOCC5)c4)ccc3C)c2cc1OCCN(C(C)C)C(C)C as the compound, how does the IC50 (MAPK14) read?
**A.** Its IC50 is 0.052 µM.

**Q.** What about the IC50 (MAPK14 (human)) of the same compound?
**A.** Its IC50 is 3.5 µM.

**Q.** Cc1ccc(NC(=O)c2ccnc(N3CCOCC3)c2)cc1Nc1ccnc(OCC(C)(C)CN(C)C)n1 was tested. Which IC50 (MAPK14) did it give?
**A.** Its IC50 is 0.079 µM.

**Q.** COc1cc2ncnc(Nc3cc(NC(=O)c4cccc(N5CCOCC5)c4)ccc3C)c2cc1OCCN1CCOCC1 was tested. Which IC50 (MAPK14) did it give?
**A.** The IC50 was 0.024 µM.

**Q.** What about the IC50 (MAPK14 (human)) of the same compound?
**A.** Its IC50 is 7.8 µM.

**Q.** With Cc1ccc(NC(=O)c2ccnc(N3CCOCC3)c2)cc1Nc1cc(NCCCN2CCCC2)ncn1 as the compound, how does the IC50 (MAPK14 (human)) read?
**A.** The IC50 was > 50 µM.

**Q.** How did the IC50 (MAPK14) turn out when COc1cc2ncnc(Nc3cc(NC(=O)c4ccccc4)c(F)cc3F)c2cc1OC was run?
**A.** Its IC50 is 0.054 µM.

**Q.** And the IC50 (MAPK14 (human))?
**A.** Its IC50 is > 50 µM.

**Q.** For Cc1ccc(NC(=O)c2ccnc(N3CCOCC3)c2)cc1Nc1cc(Cl)ncn1, which IC50 (MAPK14 (human)) is on record?
**A.** Its IC50 is > 50 µM.

**Q.** With COc1cc2ncnc(Nc3cc(NC(=O)c4cccc(N5CCOCC5)c4)ccc3C)c2cc1OCCN(C)C as the compound, how does the IC50 (MAPK14) read?
**A.** The IC50 was 0.035 µM.

**Q.** And the IC50 (MAPK14 (human))?
**A.** The IC50 was 6.9 µM.

**Q.** Which IC50 (MAPK14) does the source give for COc1cc2ncnc(Nc3cc(NC(=O)c4cccc(N(C)C)c4)ccc3Cl)c2cc1OC here?
**A.** The IC50 was 0.047 µM.

**Q.** And the IC50 (MAPK14 (human))?
**A.** The IC50 was > 50 µM.

**Q.** With COc1cc2ncnc(Nc3cccc(NC(=O)c4ccccc4)c3F)c2cc1OC as the compound, how does the IC50 (MAPK14 (human)) read?
**A.** The IC50 was > 50 µM.

**Q.** For COc1cc2ncnc(Nc3cc(NC(=O)c4ccccc4)ccc3C)c2cc1OC, which IC50 (MAPK14) is on record?
**A.** Its IC50 is 0.078 µM.

**Q.** For COc1cc2ncnc(Nc3cc(NC(=O)c4cccc(N5CCOCC5)c4)ccc3C)c2cc1OCCN1CCCCC1, which IC50 (MAPK14) is on record?
**A.** The IC50 was 0.056 µM.

**Q.** What about the IC50 (MAPK14 (human)) of the same compound?
**A.** Its IC50 is 4.6 µM.

**Q.** For COc1cc2ncnc(Nc3cc(NC(=O)c4ccccc4)c(Cl)cc3F)c2cc1OC, which IC50 (MAPK14 (human)) is on record?
**A.** Its IC50 is > 50 µM.

**Q.** With COc1cc2ncnc(Nc3cc(NC(=O)c4cccc(N5CCOCC5)c4)ccc3C)c2cc1OCCN1CCCC1 as the compound, how does the IC50 (MAPK14) read?
**A.** The IC50 was 0.039 µM.

**Q.** With Cc1ccc(NC(=O)c2ccnc(N3CCOCC3)c2)cc1Nc1cc(NCCCN2CCCN(C)CC2)ncn1 as the compound, how does the IC50 (MAPK14) read?
**A.** The IC50 was 1.22 µM.

**Q.** And the IC50 (MAPK14 (human))?
**A.** The IC50 was > 50 µM.

**Q.** What does the source list for Cc1ccc(NC(=O)c2ccnc(N3CCOCC3)c2)cc1Nc1ccnc(NCCCN2CCOCC2)n1?
**A.** IC50 (MAPK14): 0.098 µM; IC50 (MAPK14 (human)): > 50 µM

**Q.** With Cc1ccc(NC(=O)c2ccnc(N3CCOCC3)c2)cc1Nc1ccnc(OC2CCN(C)CC2)n1 as the compound, how does the IC50 (MAPK14) read?
**A.** The IC50 was 0.045 µM.

**Q.** CCCN1CCC(Oc2nccc(Nc3cc(NC(=O)c4ccnc(N5CCOCC5)c4)ccc3C)n2)CC1 was tested. Which IC50 (MAPK14) did it give?
**A.** The IC50 was 0.055 µM.

**Q.** Which IC50 (MAPK14 (human)) does the source give for C=CCN(C)c1nccc(Nc2cc(NC(=O)c3ccnc(N4CCOCC4)c3)ccc2C)n1 here?
**A.** Its IC50 is > 50 µM.

**Q.** COc1cc2ncnc(Nc3ccc(Cl)c(NC(=O)c4cccc(N(C)C)c4)c3)c2cc1OC was tested. Which IC50 (MAPK14 (human)) did it give?
**A.** Its IC50 is > 50 µM.

**Q.** What does the source list for COc1cc2ncnc(Nc3cc(NC(=O)c4ccccc4)ccc3Cl)c2cc1OC?
**A.** IC50 (MAPK14): 0.088 µM; IC50 (MAPK14 (human)): > 50 µM

**Q.** With Cc1ccc(NC(=O)c2ccnc(N3CCOCC3)c2)cc1Nc1ccnc(OCCCN(C)C)n1 as the compound, how does the IC50 (MAPK14) read?
**A.** Its IC50 is 0.037 µM.

**Q.** Which IC50 (MAPK14 (human)) does the source give for COc1cc2ncnc(Nc3cccc(Cl)c3)c2cc1OC here?
**A.** Its IC50 is > 50 µM.

**Q.** Which IC50 (MAPK14) does the source give for Cc1ccc(NC(=O)c2ccnc(N3CCOCC3)c2)cc1Nc1ccnc(NCCCN2CCCC2)n1 here?
**A.** The IC50 was 0.058 µM.

**Q.** Which IC50 (MAPK14 (human)) does the source give for COc1cc2ncnc(Nc3cccc(NC(=O)c4cccc(N(C)C)c4)c3)c2cc1OC here?
**A.** The IC50 was > 50 µM.

**Q.** How did the IC50 (MAPK14 (human)) turn out when COc1cc2ncnc(Nc3ccc(Cl)c(NC(=O)c4ccccc4)c3)c2cc1OC was run?
**A.** The IC50 was > 50 µM.

**Q.** How did the IC50 (MAPK14 (human)) turn out when COc1cc2ncnc(Nc3ccc(C)c(NC(=O)c4ccccc4)c3)c2cc1OC was run?
**A.** The IC50 was > 50 µM.

**Q.** For CSc1nccc(Nc2cc(NC(=O)c3cc(F)cc(N4CCOCC4)c3)ccc2C)n1, which IC50 (MAPK14) is on record?
**A.** The IC50 was 0.014 µM.

**Q.** With COc1cc2ncnc(Nc3cccc(NC(=O)c4ccccc4)c3)c2cc1OC as the compound, how does the IC50 (MAPK14 (human)) read?
**A.** The IC50 was > 50 µM.
